The values below are quoted from earlier work in patent US20080317753A1, “SELECTING PATIENTS FOR THERAPY WITH A HER INHIBITOR” (GENENTECH, INC., priority 2004, published 2008).

For series [1] the following is noted: combined with gemcitabine in several combinations of different chemotherapies, phase II trials.
For series [2], the system named is HER2-overexpressing metastatic breast cancers. Conditions: patients with HER2-overexpressing metastatic breast cancers with extensive prior anti-cancer therapy.
For series [3] the following is noted: single agent.

Counter-ions that a name gives are not always drawn.

For the compound “trastuzumab: recombinant humanized version of murine HER2 antibody 4D5; light and heavy chain sequences SEQ ID NOS. 15 and 16”, in series [1], the tolerability result is on record as “well tolerated with no observed cardiac or unexpected toxicities”. The clinical activity entry in series [2] is “clinically active”.
In the case of `Nc1ccn([C@@H]2O[C@H](CO)[C@@H](O)C2(F)F)c(=O)n1` [gemcitabine, 2′-deoxy-2′,2′-difluorocytidine monohydrochloride (b-isomer)], the “nausea and vomiting, combined incidence” value in series [3] is 69%.
